{
  "source": "patent US20110300628A1",
  "about": "“ENHANCEMENT OF EPIDERMAL CELL GROWTH BY NON-PROTEIN GROWTH FACTORS” (priority 2010, published 2011)",
  "key": {"[1]": {"test_system": "normal human keratinocytes (NHK cells)", "assay": "Clonal growth assay of normal human keratinocytes in serum-free chemically defined medium", "type": "cell-based", "settings": "for effect on clonal growth in high (3×) levels of the six key amino acids: 3× amino acids; for clonal growth of NHK relative to control medium supplemented with IGF-1 and EGF: additive in combination with IGF-1 (5 ng/mL), no EGF, 10 days after plating, diBcAMP 0.1 mM, LiCl 10 mM, PGE1 10 μg/ml; for replacement of protein growth factor requirement for clonal growth of NHK: serum-free medium, 10 days clonal growth; for clonal growth of NHK relative to culture medium supplemented with EGF plus IGF-1: 10 days", "procedure": "The methods for isolating and culturing primary and secondary-passaged normal human neonatal normal human keratinocyte (NHK cells) were those previously employed (Wille et al., 1984). For the purpose of the present invention, secondary serially-passaged cultures were plated at 500 cells/cm in a novel serum-free basal media previously disclosed (Wille J. J., U.S. Pat. No. 5,586,307). This basal nutrient defined culture medium was supplemented either singly with the following additives: diBCAMP (1×10−4 M), LiCl (10 mM), and PGE1 ([…]). All dishes were fixed ten days later, stained with crystal violet stain (0.2%) and photographed."}, "[2]": {"test_system": "keratinocyte cells", "settings": "low calcium (0.03 mM) or calcium-free, serum-free medium; cited from earlier work"}},
  "data": [
    {"smiles": "[Cl-].[Li+]", "note": "[Li+ ions, Lithium chloride]", "values": [
      {"measurement": "multiplication of human keratinocyte cells", "setting": "[1]; 10 mM, serum-free chemically defined medium", "result": "stimulate"},
      {"measurement": "effect on clonal growth in low (1×) levels of the six key amino acids", "setting": "[1]; 1× amino acids, with protein growth factors", "result": "growth-enhancing effects"},
      {"measurement": "effect on clonal growth in high (3×) levels of the six key amino acids", "setting": "[1]; with protein growth factors, listed as lithium ions", "result": "lost"},
      {"measurement": "effect on clonal growth in high (3×) levels of the six key amino acids", "setting": "[1]; with protein growth factors, listed as lithium ions (Li+)", "result": "no enhancement"},
      {"measurement": "clonal growth of NHK relative to control medium supplemented with IGF-1 and EGF", "setting": "[1]", "result": "significantly enhances"},
      {"measurement": "replacement of protein growth factor requirement for clonal growth of NHK", "setting": "[1]", "result": "can replace EGF"},
      {"measurement": "replacement of protein growth factor requirement for clonal growth of NHK", "setting": "[1]; listed as Lithium ions", "result": "completely replaced EGF"}
    ]},
    {"smiles": "CCCC(=O)Nc1ncnc2c1ncn2[C@@H]1O[C@@H]2COP(=O)(O)O[C@H]2[C@H]1OC(=O)CCC", "note": "[diBcAMP, dibutryl-3′-5′-adenosine monophosphate]", "values": [
      {"measurement": "clonal growth of NHK relative to control medium supplemented with IGF-1 and EGF", "setting": "[1]", "result": "significantly enhanced"},
      {"measurement": "clonal growth of NHK relative to control medium supplemented with IGF-1 and EGF", "setting": "[1]; listed as diBCAMP", "result": "does enhance"},
      {"measurement": "replacement of protein growth factor requirement for clonal growth of NHK", "setting": "[1]", "result": "can replace EGF"}
    ]},
    {"smiles": "[Sr+2]", "note": "[Strontium ions (Sr 2+)]", "values": [
      {"measurement": "concentration of maximal enhancement of cell viability and increase in cell number", "setting": "[2]", "result": "1.0 to 2.0", "unit": "mM"}
    ]},
    {"smiles": "CCCCC[C@H](O)/C=C/[C@H]1[C@H](O)CC(=O)[C@@H]1CCCCCCC(=O)O", "note": "[PGE1, Prostaglandin E1]", "values": [
      {"measurement": "clonal growth of NHK relative to control medium supplemented with IGF-1 and EGF", "setting": "[1]", "result": "significantly enhanced"},
      {"measurement": "clonal growth of NHK relative to culture medium supplemented with EGF plus IGF-1", "setting": "[1]; in combination with both EGF and IGF-1", "result": "significantly enhanced"},
      {"measurement": "clonal growth in elevated (3×) levels of the six key amino acids relative to lower (1×) levels", "setting": "[1]; in the presence of insulin (5 μg/mL) and EGF (10 ng/mL)", "result": "significant enhancement"},
      {"measurement": "replacement of protein growth factor requirement for clonal growth of NHK", "setting": "[1]", "result": "can replace both EGF and IGF-1"},
      {"measurement": "clonal growth of NHK relative to culture medium supplemented with EGF plus IGF-1", "setting": "[1]; single addition to medium unsupplemented by any protein growth factors", "result": "significantly enhanced"}
    ]}
  ]
}
